Calls of active or inactive are those of the source.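 The calls were made as follows: active = AC50 no more than tenfold above the top dose tested, or full inhibition at every dose with a flat fit (cut at about 19 µM in these data); inconclusive = flat curve fit with inhibition between 30% and 70%, or poor fit; inactive = AC50 more than tenfold above the top dose tested.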
Tested on: HMLE_sh_eGFP viability, CellTiter-Glo luminescence, 72 h
Experiment: cytotoxicity in HMLE control line with eGFP shRNA, dose response, counter-screen for HMLE_sh_ECad selective toxicity project, cell-based, HMLE_sh_eGFP, luminescence (AID 463074);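 also: counterscreen control line to flag general toxicity for the HMLE_sh_ECad screen; potency for loss of viability as luminescence drops below DMSO wells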

SMILES	AC50
CC(C(=O)O)N1C(=O)CSc2ncccc21 (stereo not drawn)	> 19.5 µM (inactive)
Clc1ccc2nnnc(-c3ccccc3)c2c1	4.26 µM
CCc1ccc(-c2cc3c(=O)n(CC(=O)NCCN4CCCCC4C)nc(C)n3n2)cc1 (stereo not drawn)	5.23 µM
COc1ccccc1/C=C1\S/C(=N/NC(=O)c2cccc(Br)c2)NC1=O	8.09 µM
CCc1c(C)sc(NC(=O)/C=C/c2ccc3c(c2)OCO3)c1C(=O)OC	0.776 µM
COc1cc2cnc(-c3ccccc3)c(-c3cccc(C(F)(F)F)c3)c2cc1OC	6.67 µM
CC1(O)CC(c2ccc(Cl)cc2)=NN1C(=O)c1ccc([N+](=O)[O-])cc1 (stereo not drawn)	6.72 µM
COc1ccc2nc(C)cc(SCC(=O)N/N=C/c3ccc(O)cc3O)c2c1	2.33 µM
Cc1cccc2[nH]c3c(N4CC=C(c5ccc(F)cc5)CC4)ncnc3c12	5.01 µM
O=C(Nc1ccc(Oc2c(F)c(F)c(F)c(F)c2F)cc1)OC1CCN2Cc3ccccc3N=C12 (stereo not drawn)	1.21 µM
OCCN(CCO)CC(O)COc1ccc(C23CC4CC(CC(C4)C2)C3)cc1 (stereo not drawn)	0.493 µM
O=C(CSCc1cccc(Cl)c1)Nc1ccccc1-c1ccccc1	> 19.5 µM (inactive)
COc1ccc(-c2nn(-c3ccccc3)cc2/C=N/N2C(=O)CSC2=S)cc1	3.97 µM
CC(=O)[C@@]1(O)C(C)CC2C3C=C(C)C4=Cc5c(cnn5-c5ccccc5)C[C@]4(C)C3C(O)C[C@@]21C (stereo partly drawn)	4.03 µM
C[C@@H]1O[C@@H](O[C@H]2C[C@@H](O)[C@]3(CO)[C@@H]4C(CC[C@]3(O)C2)[C@@]2(O)CC[C@H](C3COC(=O)C3)[C@@]2(C)C[C@H]4O)[C@H](O)[C@H](O)[C@H]1O (stereo partly drawn)	0.707 µM
O=[N+]([O-])c1ccc(N/N=C/c2c[nH]c3ccccc23)c(S(=O)(=O)Nc2ccc(Cl)cc2)c1	1.66 µM
C=CCCC(=O)Nc1nc(C)c(-c2csc(Nc3cc(OC)ccc3OC)n2)s1	1.02 µM
O=c1c2cn[nH]c2nc(SCc2ccccc2F)n1-c1ccc(Br)cc1	4.9 µM
Cc1ccccc1C(=O)Nc1ccc(-c2nc3ccc(C(=O)c4ccccc4)cc3[nH]2)cc1	1.8 µM
O=C(Nc1ccc(OC(F)F)c(Cl)c1)Nc1ccc2c(c1)OCO2	3.14 µM
CCOc1ccc(N/C(N)=N/c2nc(CSc3nnc(C)s3)cc(=O)[nH]2)cc1	0.609 µM
O=C1CC(=C(c2ccccc2)c2ccccc2)C(=O)N1CCCCN1CCN(c2cccc(Cl)c2)CC1	2.02 µM
O=S(=O)(Nc1nc2ccccc2nc1Nc1ccc(N2CCOCC2)cc1)c1cc(Cl)ccc1Cl	4.23 µM
C/C(=N\NC(=O)c1nnn(-c2nonc2N)c1CN1CCc2ccccc21)c1ccccc1O	3.21 µM
CC(Nc1nc(-c2ccccc2)nc2ccccc12)c1ccccc1 (stereo not drawn)	5.38 µM
C=C(C)COc1ccc(-c2n[nH]c(C)c2-c2ccc(OC)c(OC)c2)c(O)c1	2.65 µM

SMILES	AC50
CSc1ccccc1C(=O)Nc1cc(C)ccc1C	> 19.5 µM (inactive)
C/C(=N\Nc1cc(C(F)(F)F)ccc1Cl)c1ccccc1O	19.9 µM
Cc1c(C2(O)CCCCC2)[nH]c2ccc(C(F)(F)F)cc12	6.11 µM
Cc1ccc(NC(=O)c2ccc(Cl)c(N3C(=O)C=CC3=O)c2)cc1	8.19 µM
Cc1c(Cl)c([N+](=O)[O-])nn1Cc1ccc(C(=O)N/N=C\c2cc(Cl)ccc2O)o1	4.54 µM
C/C(=N\NC(=O)c1cccc(Cl)c1)C1C(=O)c2ccccc2C1=O	20.1 µM
O=C(O)c1ccc(CSc2nc(-c3ccc(Cl)cc3)cc(C(F)(F)F)n2)cc1	9.94 µM
Cc1cccc(Nc2nc(N)c([N+](=O)[O-])c(N3CC(C)CC(C)C3)n2)c1 (stereo not drawn)	6.75 µM
CCCCCCSc1cccc(-c2nc3ccc(Cl)cn3c2NCc2ccccc2)c1	3.12 µM
COc1ccc(NC(=O)c2cccc(-c3ccc(O)cc3)c2)cn1	7 µM
O=C(Nc1nc2ccc(SC(F)F)cc2s1)c1ccc(NS(=O)(=O)c2ccc(F)c(F)c2)cc1	3.58 µM
COc1ccc(C)cc1NC(=O)CSc1nnc(COc2ccc(Cl)cc2)n1Cc1ccco1	8.28 µM
O=C(Nc1ccc(Nc2ccccc2)cc1)c1ccccc1	13.5 µM
CCC1CSC(Nc2ccc(C(=O)/C=C/c3ccc(Br)cc3)cc2)=N1 (stereo not drawn)	5.68 µM
COc1ccc2c(c1)-c1nc(NC(=O)c3cccs3)sc1CC2	11.3 µM
C=CCCC(=O)Nc1nc(C)c(-c2csc(Nc3ccc(Cl)cc3)n2)s1	3.83 µM
CCCNCC1C(Oc2ccc(Cl)cc2Cl)C(=O)N1c1cccc(C)c1C (stereo not drawn)	7.2 µM
COc1ccc(-c2sc3ccccc3c2C#CC2(O)CCCCC2)cc1	5.38 µM
Fc1ccc(CSc2nc3ccccc3[nH]2)c2ccccc12	5.51 µM
CCOc1cccc(/C=N/NC(=O)c2cc(C3CC3)[nH]n2)c1O	5.72 µM
CC(C)N1CCc2c(sc(NC(=O)c3cc(-c4cccs4)nc4ccccc34)c2C(N)=O)C1	12.9 µM
O=C(c1cccc(S(=O)(=O)N2CCc3ccccc3C2)c1)N1CCN(c2ccc(O)cc2)CC1	2.9 µM
COc1ccc(/C=C/c2nc3cc(-c4ccccc4)ccc3o2)cc1O	9.18 µM
COc1ccc(C(=O)Nc2ccc(OCC(F)(F)C(F)F)c(C(F)(F)F)c2)cc1OC	5.48 µM
FC(F)Oc1ccc(-c2csc(NNC3=NCCCCC3)n2)cc1	3.28 µM
CC(C)Cn1c(O)c(N=NC(=O)c2cccc(S(=O)(=O)N3CCCCC3)c2)c2ccccc21	1.57 µM

SMILES	AC50
COc1cccc(-c2sc3ccccc3c2-c2ccc(OCCN3CCCCC3)cc2)c1	1.41 µM
Cc1ccc(NC(=S)NC(NC(=O)Cc2cccc3ccccc23)C(Cl)(Cl)Cl)cc1 (stereo not drawn)	3.41 µM
O=C(N/N=C/c1cccc(O)c1)c1ccc(COc2ccccc2Br)cc1	6.42 µM
O=C(C[C@@H]1C/C=C/CC[C@H](Cc2ccc(F)cc2)C(=O)OC[C@@H](Cc2ccccc2)NC1=O)N[C@H](CO)Cc1ccccc1	1.56 µM
CN1CCN(c2ccc(NC(=O)COc3ccc(Cl)cc3Cl)cc2)CC1	5.38 µM
COc1ccc(Nc2nc(N)c([N+](=O)[O-])c(NC3CCCCC3)n2)cc1	4.58 µM
CC(C)C[C@@H](CO)N(Cc1ccccc1)S(=O)(=O)N(Cc1ccccc1)[C@H](CO)CC(C)C	7.24 µM
Clc1ccc(C(Cn2ccnc2)OCc2csc3c(Cl)cccc23)c(Cl)c1 (stereo not drawn)	3.16 µM
CCC1=NN2C(=N)/C(=C/c3c(C)nn(-c4ccccc4)c3Cl)C(=O)N=C2S1	> 19.5 µM (inactive)
CCCCC(CC)CN1C(=O)/C(=C/c2ccncc2)SC1=S (stereo not drawn)	6.81 µM
N#CC1=C(SCC(=O)c2ccc(Br)cc2)NC2=C(C(=O)CCC2)C1c1ccco1 (stereo not drawn)	2.21 µM
CC1(C)C=C2[C@H]3CC[C@@H]4[C@@]5(C)CCC(=O)C(C)(C)[C@@H]5CC[C@@]4(C)[C@]3(C)CC[C@@]2(C(=O)O)CC1	3.58 µM
CC1=C(/C=C/C(C)=C/C=C/C(C)=C/C(=O)Nc2ccc(O)cc2)C(C)(C)CCC1	2.26 µM
COc1cc(Nc2nc(-c3ccccc3)c3cc(C)ccc3n2)cc(OC)c1OC	5.17 µM
CCCCCc1cc(=O)oc2c(C(CCN3CCCC(C)C3)c3ccc(OC)cc3)c(OC)cc(OC)c12 (stereo not drawn)	5.33 µM
Cc1c(O)cc2c(c1O)C(=O)CC(c1ccccc1)O2 (stereo not drawn)	15.2 µM
O=c1cc(N2CCCCC2)c(-c2ccccc2)nn1Cc1cccc(Cl)c1	4.56 µM
Cc1ccc(CNc2nc(-c3cccs3)nc3ccccc23)cc1	8.41 µM
CCn1c(N2CCN(S(=O)(=O)c3ccc(F)cc3)CC2)nc2ccccc21	> 19.5 µM (inactive)
O=[N+]([O-])c1ccc(CP(=O)(c2ccccc2)c2ccccc2)cc1	> 19.5 µM (inactive)
COc1cc(/C=C(\C#N)c2ccccn2)ccc1OCC(=O)Nc1ccc(Br)cc1	2.7 µM
C=CCOc1cccc(/C=C2\C(=O)N(Cc3ccc(C)cc3)C(C)=C2C(=O)OC)c1	7.24 µM
CCCCOc1ccc(S(=O)(=O)N2CCN(c3ccc(N4CCN(CC)CC4)nn3)CC2)cc1	0.46 µM
Cn1cccc1-c1nc2ccccc2n1Cc1ccccc1	13.6 µM
Cc1cccc(CN2C(=O)[C@@H]3Cc4c([nH]c5ccccc45)C(C)(C)N3C2=O)c1	12.3 µM
COc1ccc(Nc2nc(-c3ccccc3O)nc3ccccc23)cc1	4.79 µM

SMILES	AC50
CCOC(=O)c1c(NC(=O)/C=C/c2ccc3c(c2)OCO3)sc(C)c1CC	1.35 µM
COc1ccc2sc(-c3ccc(SC)cc3)c(C#CC(C)(C)O)c2c1	6.66 µM
Cc1cc(C)c2[nH]c(=O)c(CN(Cc3cccs3)C(=S)NCc3ccco3)cc2c1	> 19.5 µM (inactive)
CCS(=O)(=O)Nc1ccc(-c2cc(-c3ccccc3)c3cc(C)ccc3n2)cc1	3.85 µM
O=C(/C=C/c1ccc(Cl)c([N+](=O)[O-])c1)c1ccc(O)cc1	3.72 µM
Cc1cccc(-c2cc3nc4c(c(NCc5ccco5)n3n2)CCCC4)c1	7.25 µM
C/C(=N\Nc1ccccc1)c1c(O)n(C)c(=O)n(C)c1=O	4.05 µM
Cc1occc1C(=O)Nc1ccc(OCc2ccccc2)cc1	6.25 µM
COC(=O)[C@@H]1C[C@]2(OC(=O)c3ccccc3)C=CC(=O)C[C@@H]2N1C(=O)OCc1ccccc1	7.87 µM
CSc1nc2sc3c(c2c(=O)n1CC(C)C)CC(C)(C)OC3	< 0.16 µM
O=S(=O)([N-]c1nc2ccccc2nc1-[n+]1ccc(Cc2ccccc2)cc1)c1ccc(Br)s1	6.16 µM
Brc1ccc(/C=N/Nc2ccccc2)cc1	8.16 µM
O=C1CC(c2cc(Br)ccc2F)c2cc3c(cc2N1)CCC3 (stereo not drawn)	0.196 µM
N#Cc1c(-c2ccccc2)cc(-c2ccccc2)nc1SCCC(=O)O	2.41 µM
O=C(CC1NCCc2ccccc21)Nc1ccc(Oc2ccccc2)cc1 (stereo not drawn)	7.46 µM
Cc1ccccc1-c1cc(C(=O)Nc2sc(C(=O)OC(C)C)c(C)c2C#N)c2ccccc2n1	2.66 µM
CN1C(=O)/C(=C/c2cc(N=Nc3ccccc3)ccc2O)SC1=S	1.29 µM
Cc1cc(N2CCN(c3ccc(C(F)(F)F)cc3[N+](=O)[O-])CC2)c2ccccc2n1	1.38 µM
S=C(NCCC(c1ccccc1)c1ccccc1)Nc1cccc(Cl)c1	2.79 µM
CCc1c(C2(O)CCCCC2)[nH]c2ccc(C(F)(F)F)cc12	3.56 µM
Cc1ccccc1CNc1ccc(C(CC(N)=O)NC(=O)c2ccccc2)cc1[N+](=O)[O-] (stereo not drawn)	6.24 µM
CC(=O)Oc1ccc(-c2ccc(C(=O)Nc3cccc(S(=O)(=O)N4CCOCC4)c3)cc2)cc1	1.46 µM
O=[N+]([O-])c1ccc(COc2ccc(-c3[nH]ncc3-c3ccc(Cl)cc3)c(O)c2)cc1	4.01 µM
C=CCn1c(O)c(C2=c3ccccc3=NC2=O)sc1=Nc1ccc(O)cc1	6.76 µM
Cn1nc(C(F)(F)F)c(C(=O)Nc2cccc(C(F)(F)F)c2)c1SCc1ccc(Cl)cc1	7.09 µM

Reference: PubChem BioAssay AID463074 (Broad Institute, 2010)
